The subject of test [1] is HO-1. Briefly: Nrf2 target gene induction in MDA-MB-435 cells, qPCR: HO-1. It counts as cell-based, human. Particulars: 16 hours. The method, then: FIG. 43. Induction of HO-1. FIGS. 43A and 43B: MDA-MB-435 human melanoma cells were treated with vehicle (DMSO) or the indicated compounds and concentrations for 16 hours. HO-1 mRNA levels were quantified using qPCR and were normalized relative to a DMSO-treated sample run in parallel. Values are averages of duplicate wells. FIG. 43C: MDA-MB-435 cells were treated with vehicle (DMSO) or the indicated compounds at 400 nM for 16 hours. HO-1, TrxR1 and actin protein levels were assayed by immunoblotting. Actin served as a loading control.
(§1) FIGS. 44, 46 and 47—Induction of HO-1, TrxR1 and γ-GCS. FIGS. 44A-C, 46A-C, 47A-C: MDA-MB-435 human melanoma cells were treated with vehicle (DMSO) or the indicated compounds (400 nM) for 16 hours. HO-1, thioredoxin reductase-1 (TrxR1), and γ-glutamylcysteine synthetase (γ-GCS) mRNA levels were quantified using qPCR and were normalized relative to a DMSO-treated sample run in parallel. Values are averages of duplicate wells. FIGS. 44D, 46D, 47D: MDA-MB-435 cells were treated with vehicle (DMSO) or the indicated compounds at 400 nM for 16 hours. HO-1, TrxR1 and actin protein levels were assayed by immunoblotting.
(§2) FIG. 45. Induction of HO-1, TrxR1 and γ-GCS. FIGS. 45 A-C: MDA-MB-435 cells were treated with vehicle (DMSO) or the indicated compounds at 160 nM for 16 hours. HO-1, TrxR1, and γ-GCS mRNA levels were quantified by qPCR and were normalized relative to a DMSO-treated sample run in parallel. Values are averages of duplicate wells. FIGS. 44D, 46D, 47D: MDA-MB-435 cells were treated with vehicle (DMSO) or the indicated compounds at 160 nM for 16 hours. HO-1, TrxR1 and actin protein levels were assayed by immunoblotting.
(§3) MDA-MB-435 human melanoma cells were treated with vehicle (DMSO) or the indicated compounds and concentrations for 16 hours. HO-1, thioredoxin reductase-1 (TrxR1), γ-glutamylcysteine synthetase (γ-GCS), and ferritin heavy chain mRNA levels were quantified using qPCR and were normalized relative to a DMSO-treated sample run in parallel. Values are averages of duplicate wells. Primer sequences are as follows.
For orientation: Real-time PCR tracks product formation cycle by cycle.

Test [2] deals with IFNγ-induced NO production in RAW264.7 macrophages. Nature of the test: Suppression of IFNγ-induced NO production (Griess reagent). The conditions noted are these: Mus musculus, 2 h pre-treatment, then 20 ng/ml IFNγ for 24 hours. The test is classed as cell-based, mouse. The method, then: (§4) FIGS. 1-34. Inhibition of NO Production. RAW264.7 macrophages were pre-treated with DMSO or drugs at various concentrations (nM) for 2 hours, then treated with 20 ng/ml IFNγ for 24 hours. NO concentration in media was determined using the Griess reagent system; cell viability was determined using WST-1 reagent. FIGS. 49-52. Inhibition of NO Production. RAW264.7 macrophages were pre-treated with DMSO or drugs at various concentrations (nM) for 2 hours, then treated with 20 ng/ml IFNγ for 24 hours. NO concentration in media was determined using the Griess reagent system; cell viability was determined using WST-1 reagent. RAW264.7 macrophages were pre-treated with DMSO or drugs for 2 hours, then treated with recombinant mouse IFNγ (Sigma) for 24 hours. NO concentration in media was determined using the Griess reagent system (Promega). Cell viability was determined using WST-1 reagent (Roche).
(In general: The Griess reaction detects nitrite, a stable product of nitric oxide.)

Test [3] relates to γ-GCS. Nature of the test: Nrf2 target gene induction in MDA-MB-435 cells, qPCR: γ-GCS. The test is classed as cell-based, human. Particulars: 16 hours. The method, then: as §1, §2, §3
Test [4] relates to RAW264.7 macrophages. Briefly: Cell viability, WST-1 reagent. It counts as cell-based, mouse. The conditions noted are these: Mus musculus, 2 h pre-treatment, then 20 ng/ml IFNγ for 24 hours. The procedure:
as §4
A general note: Tetrazolium dyes change colour on reduction, which living cells bring about.

Test [5] relates to TrxR1. Nature of the test: Nrf2 target gene induction in MDA-MB-435 cells, qPCR: TrxR1. The test is classed as cell-based, human. The conditions noted are these: 16 hours. The method, then: as §1, §2, §3
Test [6] has as its system iNOS. Briefly: iNOS Western blot in RAW264.7 mouse macrophages. It counts as cell-based. The conditions noted are these: compounds at 300 nM for 2 hours, 24 hour induction by IFNγ, read-out: iNOS suppr. WB. The procedure:
FIGS. 38-40. iNOS Western Blot in RAW264.7 mouse macrophages. Cells were pretreated by compounds at 300 nM for 2 hours, followed by 24 hour induction by IFNγ (20 ng/ml). […]

Each structure is given as a SMILES string.

Take `CNC(=O)N[C@]12CCC(C)(C)C[C@H]1[C@H]1C(=O)C=C3[C@@]4(C)C=C(C#N)C(=O)C(C)(C)[C@@H]4CC[C@@]3(C)[C@]1(C)CC2` [Compound 63172, 1-((4aS,6aR,6bS,8aR,12aS,14aR,14bS)-11-cyano-2,2,6a,6b,9,9,12a-heptamethyl-10,14-dioxo-1,2,3,4,4a,5,6,6a,6b,7,8,8a,9,10,12a,14,14a,14b-octadecahydropicen-4a-yl)-3-methylurea]: the HO-1 induction in test [1] (160 nM) is given as 4% of induction observed for RTA 402. Further, the concentration for half-maximal inhibition (IC50) (commonly the point on the concentration scale where inhibition reaches its midpoint) in test [2] was 0.03 µM; in test [4], more than 0.2 µM. Also, the γ-GCS induction in test [3] (160 nM) is 27% of induction observed for RTA 402. Further, in test [5] (160 nM), the TrxR1 induction was 43% of induction observed for RTA 402.

`C=CCOC(=O)N[C@]12CCC(C)(C)C[C@H]1[C@H]1C(=O)C=C3[C@@]4(C)C=C(C#N)C(=O)C(C)(C)[C@@H]4CC[C@@]3(C)[C@]1(C)CC2` [Compound 63186, allyl-(4aS,6aR,6bS,8aR,12aS,14aR,14bS)-11-cyano-2,2,6a,6b,9,9,12a-heptamethyl-10,14-dioxo-1,2,3,4,4a,5,6,6a,6b,7,8,8a,9,10,12a,14,14a,14b-octadecahydropicen-4a-ylcarbamate]: the IC50 was 0.003 to 0.006 µM in test [2] and 0.1 µM in test [4].

Turning to `CC1(C)CC[C@]2(NS(=O)(=O)c3cccs3)CC[C@]3(C)[C@H](C(=O)C=C4[C@@]5(C)C=C(C#N)C(=O)C(C)(C)[C@@H]5CC[C@]43C)[C@@H]2C1` [Compound 63187, N-((4aS,6aR,6bS,8aR,12aS,14aR,14bS)-11-cyano-2,2,6a,6b,9,9,12a-heptamethyl-10,14-dioxo-1,2,3,4,4a,5,6,6a,6b,7,8,8a,9,10,12a,14,14a,14b-octadecahydropicen-4a-yl)thiophene-2-sulfonamide], the HO-1 induction in test [1] (400 nM) is on record as 32% of induction observed for RTA 402. For the same compound, the results for the IC50 in test [2] and in test [4] were 0.002 to 0.005 µM and 0.1 µM, respectively. In addition, in test [3] (400 nM), the γ-GCS induction is listed as 90% of induction observed for RTA 402. The TrxR1 induction in test [5] (400 nM) is 90% of induction observed for RTA 402. Moreover, the inhibition at 0.3 µM in test [6] is more than 90%.

As for `CC1(C)CC[C@]2(NC(=O)N3CCOCC3)CC[C@]3(C)[C@H](C(=O)C=C4[C@@]5(C)C=C(C#N)C(=O)C(C)(C)[C@@H]5CC[C@]43C)[C@@H]2C1` [Compound 63188, N-((4aS,6aR,6bS,8aR,12aS,14aR,14bS)-11-cyano-2,2,6a,6b,9,9,12a-heptamethyl-10,14-dioxo-1,2,3,4,4a,5,6,6a,6b,7,8,8a,9,10,12a,14,14a,14b-octadecahydropicen-4a-yl)morpholine-4-carboxamide], the values for the IC50 in test [2] and in test [4] were 0.027 µM and more than 0.2 µM, respectively.

In the case of `CCC(=O)N[C@]12CCC(C)(C)C[C@H]1[C@H]1C(=O)C=C3[C@@]4(C)C=C(C#N)C(=O)C(C)(C)[C@@H]4CC[C@@]3(C)[C@]1(C)CC2` [Compound 63189, N-((4aS,6aR,6bS,8aR,12aS,14aR,14bS)-11-cyano-2,2,6a,6b,9,9,12a-heptamethyl-10,14-dioxo-1,2,3,4,4a,5,6,6a,6b,7,8,8a,9,10,12a,14,14a,14b-octadecahydropicen-4a-yl)propionamide], the IC50 in test [2] was 0.0075 µM; in test [4] it was 0.075 µM.

In the case of `CC1(C)CC[C@]2(NCC#N)CC[C@]3(C)[C@H](C(=O)C[C@@H]4[C@@]5(C)C=C(C#N)C(=O)C(C)(C)[C@@H]5CC[C@]43C)[C@@H]2C1` [Compound 63222, (4aR,6aR,6bR,8aS,12aS,12bR,14aR,14bR)-8a-(cyanomethylamino)-4,4,6a,6b,11,11,14b-heptamethyl-3,13-dioxo-3,4,4a,5,6,6a,6b,7,8,8a,9,10,11,12,12a,12b,13,14,14a,14b-icosahydropicene-2-carbonitrile], the values for the IC50 in test [2] and in test [4] were approximately 0.045 µM and more than 0.2 µM, respectively.

Consider `CC1(C)CC[C@]2(NC(=O)C3CC3)CC[C@]3(C)[C@H](C(=O)C[C@@H]4[C@@]5(C)C=C(C#N)C(=O)C(C)(C)[C@@H]5CC[C@]43C)[C@@H]2C1` [Compound 63236, N-((4aS,6aR,6bR,8aR,12aR,12bR,14aR,14bS)-11-cyano-2,2,6a,6b,9,9,12a-heptamethyl-10,14-dioxo-1,2,3,4,4a,5,6,6a,6b,7,8,8a,9,10,12a,12b,13,14,14a,14b-icosahydropicen-4a-yl)cyclopropanecarboxamide], for which the IC50 in test [2] was approximately 0.12 µM; in test [4], more than 0.2 µM.

Take `CCN[C@]12CCC(C)(C)C[C@H]1[C@H]1C(=O)C[C@@H]3[C@@]4(C)C=C(C#N)C(=O)C(C)(C)[C@@H]4CC[C@@]3(C)[C@]1(C)CC2` [Compound 63238, (4aR,6aR,6bR,8aS,12aS,12bR,14aR,14bR)-8a-(ethylamino)-4,4,6a,6b,11,11,14b-heptamethyl-3,13-dioxo-3,4,4a,5,6,6a,6b,7,8,8a,9,10,11,12,12a,12b,13,14,14a,14b-icosahydropicene-2-carbonitrile]: the IC50 in test [2] is approximately 0.12 µM; in test [4], more than 0.2 µM.

In the case of `CC1(C)CC[C@]2(NC(=O)Cc3ccccc3)CC[C@]3(C)[C@H](C(=O)C=C4[C@@]5(C)C=C(C#N)C(=O)C(C)(C)[C@@H]5CC[C@]43C)[C@@H]2C1` [Compound 63244, N-((4aS,6aR,6bS,8aR,12aS,14aR,14bS)-11-cyano-2,2,6a,6b,9,9,12a-heptamethyl-10,14-dioxo-1,2,3,4,4a,5,6,6a,6b,7,8,8a,9,10,12a,14,14a,14b-octadecahydropicen-4a-yl)-2-phenylacetamide], the IC50 in test [2] came out at 0.01 µM; in test [4], 0.2 µM.

On to `CN(C)[C@]12CCC(C)(C)C[C@H]1[C@H]1C(=O)C=C3[C@@]4(C)C=C(C#N)C(=O)C(C)(C)[C@@H]4CC[C@@]3(C)[C@]1(C)CC2` [Compound 63245, (4aR,6aS,6bR,8aS,12aS,12bR,14bS)-8a-(dimethylamino)-4,4,6a,6b,11,11,14b-heptamethyl-3,13-dioxo-3,4,4a,5,6,6a,6b,7,8,8a,9,10,11,12,12a,12b,13,14b-octadecahydropicene-2-carbonitrile], for which the results for the IC50 in test [2] and in test [4] were 0.033 µM and more than 0.2 µM, respectively.

With `C#CC(=O)N[C@]12CCC(C)(C)C[C@H]1[C@H]1C(=O)C=C3[C@@]4(C)C=C(C#N)C(=O)C(C)(C)[C@@H]4CC[C@@]3(C)[C@]1(C)CC2` [Compound 63246, N-((4aS,6aR,6bS,8aR,12aS,14aR,14bS)-11-cyano-2,2,6a,6b,9,9,12a-heptamethyl-10,14-dioxo-1,2,3,4,4a,5,6,6a,6b,7,8,8a,9,10,12a,14,14a,14b-octadecahydropicen-4a-yl)propiolamide], the HO-1 induction in test [1] (400 nM) was 25% of induction observed for RTA 402. Besides, the IC50 in test [2] was approximately 0.003 µM; in test [4] it was more than 0.2 µM. The γ-GCS induction in test [3] (400 nM) is reported as 77% of induction observed for RTA 402. In addition, in test [5] (400 nM), the TrxR1 induction is listed as 66% of induction observed for RTA 402. The inhibition at 0.3 µM in test [6] is more than 90%.

Consider `CC1(C)CC[C@]2(NC(=O)OC3CCOC3)CC[C@]3(C)[C@H](C(=O)C[C@@H]4[C@@]5(C)C=C(C#N)C(=O)C(C)(C)[C@@H]5CC[C@]43C)[C@@H]2C1` (stereo partly drawn) [Compound 63265, tetrahydrofuran-3-yl(4aS,6aR,6bR,8aR,12aR,12bR,14aR,14bS)-11-cyano-2,2,6a,6b,9,9,12a-heptamethyl-10,14-dioxo-1,2,3,4,4a,5,6,6a,6b,7,8,8a,9,10,12a,12b,13,14,14a,14b-icosahydropicen-4a-ylcarbamate], for which the concentration for half-maximal inhibition (IC50) in test [2] was approximately 0.1 µM; in test [4] it was more than 0.2 µM.

Source of the values: US9670147B2, “Antioxidant inflammation modulators: oleanolic acid derivatives with amino and other modifications at C-17” (REATA PHARMACEUTICALS, INC., priority 2008, dated 2017).
